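Results reflect a 48-hour exposure of cells in 96-well plates to compound at five concentrations. GI50 is the concentration that inhibits growth by half.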 The source made the active and inactive calls. Cut-off read from the data, not from the text of the source: active = GI50 up to about 1.1 µM and inactive = higher.
What was measured:
Assay in all cases: growth of human tumour cells (NCI), 48 h
HCT-15 = test system: HCT-15
A549 = test system: A549
UACC-257 = test system: UACC-257
T47D = test system: T47D
SW-620 = test system: SW-620
A498 = test system: A498
UACC-62 = test system: UACC-62
MDA-MB-435 = test system: MDA-MB-435
SF-268 = test system: SF-268
Hs-578T = test system: Hs-578T
U-251 = test system: U-251
NCI/ADR-RES = test system: NCI/ADR-RES
786-0 = test system: 786-0
DU-145 = test system: DU-145
MDA-MB-231 = test system: MDA-MB-231
ACHN = test system: ACHN
OVCAR-3 = test system: OVCAR-3
TK-10 = test system: TK-10
M14 = test system: M14
OVCAR-4 = test system: OVCAR-4
NCI-H23 = test system: NCI-H23
COLO 205 = test system: COLO 205
MOLT-4 = test system: MOLT-4
OVCAR-5 = test system: OVCAR-5
PC-3 = test system: PC-3
SK-MEL-5 = test system: SK-MEL-5
SK-OV-3 = test system: SK-OV-3
UO-31 = test system: UO-31
SR = test system: SR
HCT-116 = test system: HCT-116
NCI-H460 = test system: NCI-H460
CCRF-CEM = test system: CCRF-CEM
SNB-19 = test system: SNB-19
IGROV-1 = test system: IGROV-1
MDA-N = test system: MDA-N
EKVX = test system: EKVX
NCI-H226 = test system: NCI-H226
HL-60 = test system: HL-60
Malme-3M = test system: Malme-3M
RXF 393 = test system: RXF 393
RPMI-8226 = test system: RPMI-8226
KM12 = test system: KM12
HOP-92 = test system: HOP-92
SF-295 = test system: SF-295
SN12C = test system: SN12C
OVCAR-8 = test system: OVCAR-8
LOX IMVI = test system: LOX IMVI
HT-29 = test system: HT-29
K562 = test system: K562
MCF7 = test system: MCF7
SF-539 = test system: SF-539
NCI-H522 = test system: NCI-H522
HCC 2998 = test system: HCC 2998
HOP-62 = test system: HOP-62
SK-MEL-2 = test system: SK-MEL-2

Structure (SMILES): CC(=O)OCC(OC(C)=O)C(OC(C)=O)C(/C=N/N(C(C)=O)S(=O)(=O)c1ccc(/C=C2\NC(=O)NC2=O)cc1)OC(C)=O (stereo unspecified)
- GI50 (HCT-15): > 100 µM
- GI50 (A549): > 100 µM (inactive)
- GI50 (UACC-257): > 100 µM (inactive)
- GI50 (T47D): > 100 µM (inactive)
- GI50 (SW-620): > 100 µM (inactive)
- GI50 (A498): > 100 µM (inactive)
- GI50 (UACC-62): > 100 µM (inactive)
- GI50 (MDA-MB-435): > 100 µM (inactive)
- GI50 (SF-268): > 100 µM (inactive)
- GI50 (Hs-578T): > 100 µM (inactive)
- GI50 (U-251): > 100 µM (inactive)
- GI50 (NCI/ADR-RES): > 100 µM (inactive)
- GI50 (786-0): > 100 µM (inactive)
- GI50 (DU-145): > 100 µM (inactive)
- GI50 (MDA-MB-231): > 100 µM (inactive)
- GI50 (ACHN): > 100 µM (inactive)
- GI50 (OVCAR-3): > 100 µM (inactive)
- GI50 (TK-10): > 100 µM (inactive)
- GI50 (M14): > 100 µM (inactive)
- GI50 (OVCAR-4): > 100 µM (inactive)
- GI50 (NCI-H23): > 100 µM (inactive)
- GI50 (COLO 205): > 100 µM (inactive)
- GI50 (MOLT-4): > 100 µM (inactive)
- GI50 (OVCAR-5): > 100 µM (inactive)
- GI50 (PC-3): > 100 µM (inactive)
- GI50 (SK-MEL-5): > 100 µM (inactive)
- GI50 (SK-OV-3): > 100 µM (inactive)
- GI50 (UO-31): > 100 µM (inactive)
- GI50 (SR): > 100 µM (inactive)
- GI50 (HCT-116): > 100 µM (inactive)
- GI50 (NCI-H460): > 100 µM (inactive)
- GI50 (CCRF-CEM): 50.6 µM (inactive)
- GI50 (SNB-19): > 100 µM (inactive)
- GI50 (IGROV-1): > 100 µM (inactive)
- GI50 (MDA-N): > 100 µM (inactive)
- GI50 (EKVX): > 100 µM (inactive)

Structure (SMILES): O=C(O)CCCc1ccc2c(c1)CC1(C2)Cc2cc3c(cc2C1)CCCC3
- GI50 (NCI-H226): 31.6 µM (inactive)
- GI50 (HCT-15): 8.3 µM
- GI50 (HL-60): 11.6 µM (inactive)
- GI50 (A549): 6.43 µM (inactive)
- GI50 (Malme-3M): 22 µM (inactive)
- GI50 (UACC-257): 37.7 µM (inactive)
- GI50 (RXF 393): 13.2 µM (inactive)
- GI50 (T47D): 35.6 µM (inactive)
- GI50 (A498): 17.1 µM (inactive)
- GI50 (RPMI-8226): 28 µM (inactive)
- GI50 (UACC-62): > 100 µM (inactive)
- GI50 (MDA-MB-435): 17.3 µM (inactive)
- GI50 (Hs-578T): > 100 µM (inactive)
- GI50 (U-251): 16.7 µM (inactive)
- GI50 (NCI/ADR-RES): 31.8 µM (inactive)
- GI50 (786-0): 28.6 µM (inactive)
- GI50 (KM12): 19 µM (inactive)
- GI50 (MDA-MB-231): 3.24 µM (inactive)
- GI50 (HOP-92): 23.7 µM (inactive)
- GI50 (ACHN): 17 µM (inactive)
- GI50 (OVCAR-3): 19.3 µM (inactive)
- GI50 (SF-295): 23.9 µM (inactive)
- GI50 (TK-10): 42.7 µM (inactive)
- GI50 (M14): 15.2 µM (inactive)
- GI50 (OVCAR-4): 19.5 µM (inactive)
- GI50 (NCI-H23): 23.6 µM (inactive)
- GI50 (SN12C): 22.1 µM (inactive)
- GI50 (COLO 205): 19.9 µM (inactive)
- GI50 (MOLT-4): 1.52 µM (inactive)
- GI50 (OVCAR-5): 19.9 µM (inactive)
- GI50 (PC-3): 24.6 µM (inactive)
- GI50 (SK-MEL-5): 13.8 µM (inactive)
- GI50 (OVCAR-8): 16.5 µM (inactive)
- GI50 (LOX IMVI): 17.7 µM (inactive)
- GI50 (HT-29): 16.3 µM (inactive)
- GI50 (SK-OV-3): 24.7 µM (inactive)
- GI50 (UO-31): 19.4 µM (inactive)
- GI50 (K562): 11.2 µM (inactive)
- GI50 (MCF7): 39.4 µM (inactive)
- GI50 (SR): 18.4 µM (inactive)
- GI50 (HCT-116): 2.56 µM (inactive)
- GI50 (SF-539): 2.06 µM (inactive)
- GI50 (NCI-H522): 19.2 µM (inactive)
- GI50 (HCC 2998): 19.8 µM (inactive)
- GI50 (CCRF-CEM): 11.6 µM (inactive)
- GI50 (HOP-62): 1.98 µM (inactive)
- GI50 (SK-MEL-2): 17.5 µM (inactive)
- GI50 (IGROV-1): 20 µM (inactive)
- GI50 (MDA-N): 19.1 µM (inactive)
- GI50 (EKVX): > 100 µM (inactive)
